Laboratory results: PubChem BioAssay AID248 (DTP/NCI, 2004)
Several values for one entry are separate records, joined by “and”; a condition that tells them apart may be missing. Equal entries are not always repeated. Toxic doses and inconclusive results are not listed. No stated cut-off is given here; in the data, active means T/C of 150% or more; inactive means T/C below 125%.

Tested on: L1210 leukemia ip in BDF1 mice, survival T/C
Assay: NCI In Vivo Anticancer Drug Screen. Data for tumor model L1210 Leukemia (intraperitoneal) in B6D2F1 (BDF1) mice
Details: endpoint: mean survival time, higher = longer survival
Method in brief: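 Transplantable tumor model; survival measured in treated vs vehicle control mice. Value = treated/control.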

[1] = dose: 50.0 mg/kg/injection, schedule: Q01DX001 (ip), vehicle: saline with Tween-80
[2] = dose: 100.0 mg/kg/injection, schedule: Q01DX001 (ip), vehicle: saline with Tween-80
[3] = dose: 100.0 mg/kg/injection, schedule: Q01DX009 (ip), vehicle: saline
[4] = dose: 200.0 mg/kg/injection, schedule: Q01DX009 (ip), vehicle: saline
[5] = dose: 100.0 mg/kg/injection, schedule: Q04DX002 (ip), vehicle: saline
[6] = dose: 200.0 mg/kg/injection, schedule: Q04DX002 (ip), vehicle: saline
[7] = dose: 400.0 mg/kg/injection, schedule: Q04DX002 (ip), vehicle: saline
[8] = dose: 100.0 mg/kg/injection, schedule: Q01DX009 (ip), vehicle: saline with Tween-80
[9] = dose: 200.0 mg/kg/injection, schedule: Q01DX009 (ip), vehicle: saline with Tween-80
[10] = dose: 25.0 mg/kg/injection, schedule: Q04DX003 (ip), vehicle: saline with Tween-80
[11] = dose: 50.0 mg/kg/injection, schedule: Q04DX003 (ip), vehicle: saline with Tween-80
[12] = dose: 100.0 mg/kg/injection, schedule: Q04DX003 (ip), vehicle: saline with Tween-80
[13] = dose: 200.0 mg/kg/injection, schedule: Q04DX003 (ip), vehicle: saline with Tween-80
[14] = dose: 50.0 mg/kg/injection, schedule: Q01DX009 (ip), vehicle: saline with Tween-80
[15] = dose: 100.0 mg/kg/injection, schedule: Q01DX001 (ip), vehicle: Klucel (hydroxypropylcellulose) (HPC)
[16] = dose: 200.0 mg/kg/injection, schedule: Q01DX001 (ip), vehicle: Klucel (hydroxypropylcellulose) (HPC)
[17] = dose: 400.0 mg/kg/injection, schedule: Q01DX001 (ip), vehicle: Klucel (hydroxypropylcellulose) (HPC)

Measured: T/C

CCc1ccccc1Nc1cc(=O)[nH]c(=O)[nH]1
inactive: dose: 37.5 mg/kg/injection, schedule: Q01DX001 (ip), vehicle: Klucel (hydroxypropylcellulose) (HPC) 91 % of control | dose: 75.0 mg/kg/injection, schedule: Q01DX001 (ip), vehicle: Klucel (hydroxypropylcellulose) (HPC) 87 % of control | dose: 150.0 mg/kg/injection, schedule: Q01DX001 (ip), vehicle: Klucel (hydroxypropylcellulose) (HPC) 93 % of control

O=C(COc1ccc(Cl)c(Cl)c1)Nc1ccc[n+](CC(=O)c2cccc(S(=O)(=O)F)c2)c1
inactive: dose: 25.0 mg/kg/injection, schedule: Q01DX001 (ip), vehicle: saline with Tween-80 96 % of control | [1] 98 % of control | [2] 107 % of control

ON=c1c2ccccc2c2ccccc2c2ccccc12
inactive: dose: 75.0 mg/kg/injection, schedule: Q04DX002 (ip), vehicle: gum acacia 109 % of control | dose: 150.0 mg/kg/injection, schedule: Q04DX002 (ip), vehicle: gum acacia 105 % of control | dose: 300.0 mg/kg/injection, schedule: Q04DX002 (ip), vehicle: gum acacia 105 % of control

CCCS(=O)(=O)N1CCCCC1
inactive: dose: 100.0 mg/kg/injection, schedule: Q04DX002 (ip), vehicle: Klucel (hydroxypropylcellulose) (HPC) 102 % of control | dose: 200.0 mg/kg/injection, schedule: Q04DX002 (ip), vehicle: Klucel (hydroxypropylcellulose) (HPC) 94 % of control | dose: 400.0 mg/kg/injection, schedule: Q04DX002 (ip), vehicle: Klucel (hydroxypropylcellulose) (HPC) 102 % of control

CC12C=CC(O1)C1C(=O)OC(=O)C12 (stereo unspecified)
inactive: dose: 50.0 mg/kg/injection, schedule: Q01DX009 (ip), vehicle: saline 91 % of control | dose: 75.0 mg/kg/injection, schedule: Q01DX001 (ip), vehicle: other 96 % of control | [3] 100 % of control | dose: 150.0 mg/kg/injection, schedule: Q01DX001 (ip), vehicle: other 98 % of control | [4] 88 % of control

Cc1cccc(C2=N/C(=C\c3c(O)ccc4ccccc34)C2=O)c1
inactive: [5] 120 % of control | [6] 95 % of control | [7] 98 % of control

COc1ccc(OC)c(NC(=O)NNC(=O)CNC(=O)Nc2cccc([N+](=O)[O-])c2)c1
inactive: [8] 89 % of control | [9] 91 % of control | dose: 400.0 mg/kg/injection, schedule: Q01DX009 (ip), vehicle: saline with Tween-80 91 % of control

N#CCC(=O)NCCc1ccccn1
inactive: dose: 25.0 mg/kg/injection, schedule: Q04DX002 (ip), vehicle: saline with Tween-80 93 % of control | dose: 50.0 mg/kg/injection, schedule: Q04DX002 (ip), vehicle: saline with Tween-80 97 % of control | dose: 100.0 mg/kg/injection, schedule: Q04DX002 (ip), vehicle: saline with Tween-80 98 % of control and 101 % of control

CCCCCCCCCCCCOC(=N)N1CCCC1
inactive: dose: 8.8 mg/kg/injection, schedule: Q01DX Z (ip), vehicle: saline 96 % of control | dose: 13.3 mg/kg/injection, schedule: Q01DX Z (ip), vehicle: saline 102 % of control | dose: 20.0 mg/kg/injection, schedule: Q01DX Z (ip), vehicle: saline 100 % of control

COc1cc(/C=N/[N+](C)(C)C)ccc1O
inactive: dose: 12.5 mg/kg/injection, schedule: Q01DX009 (ip), vehicle: saline with Tween-80 94 % of control | dose: 12.5 mg/kg/injection, schedule: Q04DX003 (ip), vehicle: saline with Tween-80 96 % of control | dose: 25.0 mg/kg/injection, schedule: Q01DX009 (ip), vehicle: saline with Tween-80 96 % of control | [10] 93 % of control | [11] 97 % of control

CC(C)c1cccc(O)c(=O)c1
inactive: [12] 95 % of control | [13] 103 % of control

CCN(CC)C(=O)N1CCCCC1
inactive: [3] 101 % of control | [5] 97 % of control | [4] 92 % of control | [6] 100 % of control | [7] 95 % of control

Cc1cc(C)c(N2C(=O)C=CC2=O)c(C)c1
inactive: dose: 0.39 mg/kg/injection, schedule: Q01DX009 (ip), vehicle: saline with Tween-80 94 % of control | dose: 0.78 mg/kg/injection, schedule: Q01DX009 (ip), vehicle: saline with Tween-80 94 % of control | dose: 1.56 mg/kg/injection, schedule: Q01DX009 (ip), vehicle: saline with Tween-80 95 % of control and 108 % of control | dose: 6.25 mg/kg/injection, schedule: Q01DX009 (ip), vehicle: saline with Tween-80 88 % of control

C[n+]1cccc(C(=O)N/N=C/CCc2ccccc2)c1
inactive: [10] 95 % of control | [1] 101 % of control | [14] 120 % of control | [11] 90 % of control | [2] 103 % of control | [8] 106 % of control | [12] 92 % of control | dose: 200.0 mg/kg/injection, schedule: Q01DX001 (ip), vehicle: saline with Tween-80 97 % of control | [9] 95 % of control | [13] 94 % of control | dose: 400.0 mg/kg/injection, schedule: Q01DX001 (ip), vehicle: saline with Tween-80 101 % of control

O=C(Nc1ccccc1F)c1ccco1
inactive: dose: 100.0 mg/kg/injection, schedule: Q01DX009 (ip), vehicle: Klucel (hydroxypropylcellulose) (HPC) 100 % of control | dose: 200.0 mg/kg/injection, schedule: Q01DX009 (ip), vehicle: Klucel (hydroxypropylcellulose) (HPC) 103 % of control

O=[N+]([O-])c1ccc(S(=O)Cc2ccccc2)c2c1no[n+]2[O-] (stereo unspecified)
inactive: [10] 100 % of control

CCCn1c(O)c(C(=O)CC)sc1=S
inactive: [14] 95 % of control | [8] 88 % of control

Cc1ccc(O)c(-c2ccccc2)c1
inactive: [15] 100 % of control | [16] 100 % of control | [17] 103 % of control

CCCCN(C(C)(C)C(SSSC(c1ccc(Cl)cc1)C(C)(C)N(CCCC)S(C)(=O)=O)c1ccc(Cl)cc1)S(C)(=O)=O (stereo unspecified)
inactive: [8] 96 % of control | [9] 86 % of control

C/C(CCCCCCCCC#N)=N/NC(N)=O
inactive: [15] 103 % of control | [16] 106 % of control | [17] 105 % of control

Clc1c2ccccc2c(Cl)c2ccccc12
inactive: dose: 3.1 mg/kg/injection, schedule: Q04DX002 (ip), vehicle: Klucel (hydroxypropylcellulose) (HPC) 89 % of control | dose: 6.25 mg/kg/injection, schedule: Q04DX002 (ip), vehicle: Klucel (hydroxypropylcellulose) (HPC) 100 % of control | dose: 12.5 mg/kg/injection, schedule: Q04DX002 (ip), vehicle: Klucel (hydroxypropylcellulose) (HPC) 93 % of control | dose: 25.0 mg/kg/injection, schedule: Q04DX002 (ip), vehicle: Klucel (hydroxypropylcellulose) (HPC) 90 % of control

C=C(C)C1(C)C(=O)NC(=S)NC1=O
inactive: dose: 75.0 mg/kg/injection, schedule: Q01DX001 (ip), vehicle: saline 108 % of control | dose: 150.0 mg/kg/injection, schedule: Q01DX001 (ip), vehicle: saline 100 % of control | dose: 300.0 mg/kg/injection, schedule: Q01DX001 (ip), vehicle: saline 107 % of control
